We go through one compound from patent publication US20230317203A1, “SCREENING METHOD” (University of Leeds, priority 2022, published 2023).

One test addresses BRISC BRCC36 Ile158Lys (Homo sapiens, UniProt P46736+Q15018+Q9NXR7, I158K). Put plainly: Mass photometry, BRISC mutant BRCC36 Ile158Lys. The test is classed as binding. The settings on record: BRCC36 Ile158Lys (inactive mutant). The method, then:
(§1) Microscope coverslips were prepared as previously described^33. All mass photometry experiments were performed using a One^MP mass photometer (Refeyn Ltd, Oxford, UK). For preliminary BRISC-inhibitor measurements, 1 μM BRISC(FL) was mixed with either DMSO or inhibitor at 330 μM and incubated for 15 minutes on ice. Prior to MP measurement, the BRISC-inhibitor mix was diluted in gel filtration buffer (25 mM HEPES, 150 mM NaCl, 1 mM TCEP) for a final concentration of BRISC at 10 nM (0.05% DMSO). 12 μL of this dilution was used for the final MP measurement, following autofocus stabilisation. […] Movies were recorded for 60 seconds using AcquireMP (Refeyn, UK), and were processed using DiscoverMP (Refeyn, UK). […] The relative amount of each species is calculated as the area of each Gaussian, where a refers to the standard deviation of the fitted Gaussian. […] Curves were fitted and EC50 values were calculated using the GraphPad Prism (v8.0) built-in dose-response equation for concentration of agonist vs. response (variable slope).
(§2) The cryo-EM structures of BRISC bound to molecular glues allowed picking of selective mutations to probe the BRISC-compound interaction site and to assess the contribution of each interacting residue for inhibition and gluing activity. […] For the remaining active 13 mutants (FIGS. 11C, 11D) inhibitor IC50s were calculated against BRISC DUB activity. […]

The next test has as its target BRISC Abraxas2 Thr135Lys (Homo sapiens, UniProt P46736+Q15018+Q9NXR7, T135K). Put plainly: IQF DUB assay, BRISC mutant Abraxas2 Thr135Lys. The settings on record: FIG. 4B. It counts as biochemical. The method, then: (§3) The four-subunit human BRISC (full-length (FL) and MERIT40ΔN, Abraxas2ΔC) complex was cloned using the MultiBac system and co-expressed in Spodoptera frugiperda (Sf9) insect cells^32. BRISC mutants were cloned into pFastBac vectors in the Bac-to-Bac system (ThermoFisher), baculoviruses generated in Sf9 cells and used for co-infection of Trichoplusia ni (Tni) cells. All BRISC complexes were purified as previously described^12,13.
(§4) BRISC complexes were tested for activity in DUB reaction buffer containing 50 mM HEPES-NaOH pH 7.0, 100 mM NaCl, 0.1 mg/mL BSA, 1 mM DTT, and 0.003% Brij-35. […] Inhibitors were assayed at concentrations up to 200 μM. […] DUB activity was measured using internally quenched fluorescent (IQF) K63-linked diUb (Lifesensors, catalogue number: DU6303) at 50 or 100 nM. Cleaved diUb was monitored by measuring fluorescence intensity (Ex. 540 nm, Em. 580 nm; dichroic mirror 560 nm). Fluorescence intensity was measured every minute for 30 minutes at 30° C. Fluorescence intensity units for the first 10 minutes were plotted against time to generate a linear reaction progress curve, where the initial velocity (v0) corresponds to the gradient of the curve. IC50 values were calculated using the GraphPad Prism (v8.0) built-in dose-response equation for inhibitor concentration vs. response (variable slope). […]

For test [1], the system named is BRISC. Put plainly: Mass photometry of BRISC oligomeric state. The test is classed as binding, human. The note with it: mass photometry. The method, then: (§5) Microscope coverslips were prepared as previously described^33. All mass photometry experiments were performed using a One^MP mass photometer (Refeyn Ltd, Oxford, UK). For preliminary BRISC-inhibitor measurements, 1 μM BRISC(FL) was mixed with either DMSO or inhibitor at 330 μM and incubated for 15 minutes on ice. Prior to MP measurement, the BRISC-inhibitor mix was diluted in gel filtration buffer (25 mM HEPES, 150 mM NaCl, 1 mM TCEP) for a final concentration of BRISC at 10 nM (0.05% DMSO). 12 μL of this dilution was used for the final MP measurement, following autofocus stabilisation. […] The BRISC-inhibitor mix was used directly for MP measurement using buffer-free autofocus stabilisation. Movies were recorded for 60 seconds using AcquireMP (Refeyn, UK), and were processed using DiscoverMP (Refeyn, UK). Mass photometry image processing has been previously described^33. Briefly, contrast-to-mass (C2M) calibration was performed using protein standards (66-669 kDa) diluted in gel filtration buffer. […] The mass distribution from each run is in a histogram, where count refers to each landing event and a Gaussian sum is fitted to the data. The relative amount of each species is calculated as the area of each Gaussian, where a refers to the standard deviation of the fitted Gaussian. […] Curves were fitted and EC50 values were calculated using the GraphPad Prism (v8.0) built-in dose-response equation for concentration of agonist vs. response (variable slope).

For test [2], the target named is BRISC (Homo sapiens, UniProt P46736+Q15018+Q9NXR7). Put plainly: Mass photometry of BRISC oligomeric state. The test is classed as binding. The note with it: purified BRISC mixed with inhibitor, FIG. 2B. The method, then:
as §5

Another test concerns the target BRISC BRCC36 Leu169Ala (Homo sapiens, UniProt P46736+Q15018+Q9NXR7, L169A). The test can be described thus: IQF DUB assay, BRISC mutant BRCC36 Leu169Ala. It counts as biochemical. The note with it: FIG. 4B. The method, then: as §3, §4
The next test has as its target BRISC BRCC36 Thr128Pro (Homo sapiens, UniProt P46736+Q15018+Q9NXR7, T128P). Put plainly: Mass photometry, BRISC mutant BRCC36 Thr128Pro. It counts as binding. The settings on record: BRCC36 Thr128Pro (inactive mutant). The method, then: as §1, §2

`O=C(NC1C2CNCC21)c1nn(C(=O)c2c(Cl)cccc2Cl)cc1NC(=O)c1c(Cl)cccc1Cl` (stereo not shown) [FX-171-C]: the inhibitor-induced dimerisation entry is on record as “reduction in the inhibitor-induced dimerisation effect” on BRISC BRCC36 Ile158Lys and “still formed a dimer” on BRISC BRCC36 Thr128Pro. The results for the “inhibitor sensitivity of mutant” value against BRISC Abraxas2 Thr135Lys and against BRISC BRCC36 Leu169Ala were “no effect on inhibitor sensitivity” and “severely affected”, respectively. Also, the “dimer formation at increasing inhibitor concentration” value with BRISC [1] is on record as “dose-dependent increase in dimer formation”. Besides, the “mass photometry counts, 1:1:1:1 complex” value at BRISC [2] is 13%. In addition, the “mass photometry counts, dimer” value at BRISC [2] is on record as 52%.
